Key:
Type in all cases: in vivo
[1] = tested on: Triticum aestivium (TRZAW); test: B2 Post-emergence herbicidal activity; design: key: 5=total damage to plant; 0=no damage to plant; details: post-emergence application, evaluated after 13 days
How it was run: (§1)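 Test seeds are sown in standard soil and raised for 8 days under controlled glasshouse conditions (24/16 °C, 14 h light, 65% humidity). Foliage is then sprayed with compound formulated in 50:50 acetone/water plus 0.5% Tween 20, and plants are rated 0–5 for damage after 13 days.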

[2] = tested on: Alopecurus myosuroides (ALOMY); test: B2 Post-emergence herbicidal activity; design: key: 5=total damage to plant; 0=no damage to plant; details: post-emergence application, evaluated after 13 days
How it was run: as §1

Setaria fabenri (SETFA) = test: B2 Post-emergence herbicidal activity; design: key: 5=total damage to plant; 0=no damage to plant; details: post-emergence application, evaluated after 13 days
How it was run: as §1

Avena fatua (AVEFA) [3] = test: B2 Post-emergence herbicidal activity; details: post-emergence application, evaluated after 13 days
How it was run: as §1

Lolium perenne (LOLPE) [4] = test: B1 Pre-emergence herbicidal activity; design: key to Pre-emergence herbicidal activity, LOLPE (damage score 0-5): 5=total damage to plant; 0=no damage to plant; details: pre-emergence application, evaluated after 13 days
How it was run: (§2)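 Sow in soil → 1 d glasshouse (24/16 °C, 14 h light, 65% RH) → spray pre-emergence (acetone/water 50:50, 0.5% Tween 20) → grow 13 d, water twice daily → score 0–5 (5 = total damage).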

Setaria fabenr (SETFA) = test: B1 Pre-emergence herbicidal activity; design: key to Pre-emergence herbicidal activity, SETFA (damage score 0-5): 5=total damage to plant; 0=no damage to plant; details: pre-emergence application, evaluated after 13 days
How it was run: as §2

Lolium perenne (LOLPE) [5] = test: B2 Post-emergence herbicidal activity; details: post-emergence application, evaluated after 13 days
How it was run: as §1

[6] = tested on: Echinochloa crus-galli (ECHCG); test: B2 Post-emergence herbicidal activity; design: key to Post-emergence herbicidal activity, ECHCG (damage score 0-5): 5=total damage to plant; 0=no damage to plant; details: post-emergence application, evaluated after 13 days
How it was run: as §1

[7] = tested on: Echinochloa crus-galli (ECHCG); test: B1 Pre-emergence herbicidal activity; design: key to Pre-emergence herbicidal activity, ECHCG (damage score 0-5): 5=total damage to plant; 0=no damage to plant; details: pre-emergence application, evaluated after 13 days
How it was run: as §2

[8] = tested on: Triticum aestivium (TRZAW); test: B1 Pre-emergence herbicidal activity; design: key: 5=total damage to plant; 0=no damage to plant; details: pre-emergence application, evaluated after 13 days
How it was run: as §2

[9] = tested on: Alopecurus myosuroides (ALOMY); test: B1 Pre-emergence herbicidal activity; design: key: 5=total damage to plant; 0=no damage to plant; details: pre-emergence application, evaluated after 13 days
How it was run: as §2

Avena fatua (AVEFA) [10] = test: B1 Pre-emergence herbicidal activity; design: key: 5=total damage to plant; 0=no damage to plant; details: pre-emergence application, evaluated after 13 days
How it was run: as §2

Compound: O=CNc1ccc(-c2cncc(F)c2)nc1C(F)(F)F [Compound C112]
- Post-emergence herbicidal activity, TRAZW (damage score 0-5) ([1]; rate 1000 g/ha): 1
- Post-emergence herbicidal activity, ALOMY (damage score 0-5) ([2]; rate 1000 g/ha): 0
- Post-emergence herbicidal activity, SETFA (damage score 0-5) (Setaria fabenri (SETFA); rate 1000 g/ha): 1
- Post-emergence herbicidal activity, AVEFA (damage score 0-5) (Avena fatua (AVEFA) [3]; rate 1000 g/ha): 3
- Pre-emergence herbicidal activity, LOLPE (damage score 0-5) (Lolium perenne (LOLPE) [4]; rate 1000 g/ha): 1
- Pre-emergence herbicidal activity, SETFA (damage score 0-5) (Setaria fabenr (SETFA); rate 1000 g/ha): 4
- Post-emergence herbicidal activity, LOLPE (damage score 0-5) (Lolium perenne (LOLPE) [5]; rate 1000 g/ha): 3
- Post-emergence herbicidal activity, ECHCG (damage score 0-5) ([6]; rate 1000 g/ha): 4
- Pre-emergence herbicidal activity, ECHCG (damage score 0-5) ([7]; rate 1000 g/ha): 3
- Pre-emergence herbicidal activity, TRAZW (damage score 0-5) ([8]; rate 1000 g/ha): 0
- Pre-emergence herbicidal activity, ALOMY (damage score 0-5) ([9]; rate 1000 g/ha): 1
- Pre-emergence herbicidal activity, AVEFA (damage score 0-5) (Avena fatua (AVEFA) [10]; rate 1000 g/ha): 2

Compound: O=C(O)CCC(=O)Nc1ccc(-c2cncc(F)c2)nc1C(F)(F)F [Compound C113, 4-[[6-(5-fluoro-3-pyridyl)-2-(trifluoromethyl)-3-pyridyl]amino]-4-oxo-butanoic acid]
- Post-emergence herbicidal activity, TRAZW (damage score 0-5) ([1]; rate 1000 g/ha): 3
- Post-emergence herbicidal activity, ALOMY (damage score 0-5) ([2]; rate 1000 g/ha): 1
- Post-emergence herbicidal activity, SETFA (damage score 0-5) (Setaria fabenri (SETFA); rate 1000 g/ha): 5
- Post-emergence herbicidal activity, AVEFA (damage score 0-5) (Avena fatua (AVEFA) [3]; rate 1000 g/ha): 4
- Pre-emergence herbicidal activity, LOLPE (damage score 0-5) (Lolium perenne (LOLPE) [4]; rate 1000 g/ha): 1
- Pre-emergence herbicidal activity, SETFA (damage score 0-5) (Setaria fabenr (SETFA); rate 1000 g/ha): 5
- Post-emergence herbicidal activity, LOLPE (damage score 0-5) (Lolium perenne (LOLPE) [5]; rate 1000 g/ha): 3
- Post-emergence herbicidal activity, ECHCG (damage score 0-5) ([6]; rate 1000 g/ha): 5
- Pre-emergence herbicidal activity, ECHCG (damage score 0-5) ([7]; rate 1000 g/ha): 5
- Pre-emergence herbicidal activity, TRAZW (damage score 0-5) ([8]; rate 1000 g/ha): 0
- Pre-emergence herbicidal activity, ALOMY (damage score 0-5) ([9]; rate 1000 g/ha): 0
- Pre-emergence herbicidal activity, AVEFA (damage score 0-5) (Avena fatua (AVEFA) [10]; rate 1000 g/ha): 2

Compound: COCC(=O)Nc1ccc(-c2cncc(F)c2)nc1C#N [Compound C114, N-[2-cyano-6-(5-fluoro-3-pyridyl)-3-pyridyl]-2-methoxy-acetamide]
- Post-emergence herbicidal activity, TRAZW (damage score 0-5) ([1]; rate 1000 g/ha): 1
- Post-emergence herbicidal activity, ALOMY (damage score 0-5) ([2]; rate 1000 g/ha): 1
- Post-emergence herbicidal activity, SETFA (damage score 0-5) (Setaria fabenri (SETFA); rate 1000 g/ha): 5
- Post-emergence herbicidal activity, AVEFA (damage score 0-5) (Avena fatua (AVEFA) [3]; rate 1000 g/ha): 2
- Pre-emergence herbicidal activity, LOLPE (damage score 0-5) (Lolium perenne (LOLPE) [4]; rate 1000 g/ha): 0
- Pre-emergence herbicidal activity, SETFA (damage score 0-5) (Setaria fabenr (SETFA); rate 1000 g/ha): 5
- Post-emergence herbicidal activity, LOLPE (damage score 0-5) (Lolium perenne (LOLPE) [5]; rate 1000 g/ha): 1
- Post-emergence herbicidal activity, ECHCG (damage score 0-5) ([6]; rate 1000 g/ha): 4
- Pre-emergence herbicidal activity, ECHCG (damage score 0-5) ([7]; rate 1000 g/ha): 4
- Pre-emergence herbicidal activity, TRAZW (damage score 0-5) ([8]; rate 1000 g/ha): 0
- Pre-emergence herbicidal activity, ALOMY (damage score 0-5) ([9]; rate 1000 g/ha): 0
- Pre-emergence herbicidal activity, AVEFA (damage score 0-5) (Avena fatua (AVEFA) [10]; rate 1000 g/ha): 1

Compound: CCC(=O)Nc1ccc(-c2cncc(F)c2)nc1C#N [Compound C115]
- Post-emergence herbicidal activity, TRAZW (damage score 0-5) ([1]; rate 1000 g/ha): 0
- Post-emergence herbicidal activity, ALOMY (damage score 0-5) ([2]; rate 1000 g/ha): 0
- Post-emergence herbicidal activity, SETFA (damage score 0-5) (Setaria fabenri (SETFA); rate 1000 g/ha): 5
- Post-emergence herbicidal activity, AVEFA (damage score 0-5) (Avena fatua (AVEFA) [3]; rate 1000 g/ha): 2
- Pre-emergence herbicidal activity, LOLPE (damage score 0-5) (Lolium perenne (LOLPE) [4]; rate 1000 g/ha): 1
- Pre-emergence herbicidal activity, SETFA (damage score 0-5) (Setaria fabenr (SETFA); rate 1000 g/ha): 5
- Post-emergence herbicidal activity, LOLPE (damage score 0-5) (Lolium perenne (LOLPE) [5]; rate 1000 g/ha): 1
- Post-emergence herbicidal activity, ECHCG (damage score 0-5) ([6]; rate 1000 g/ha): 4
- Pre-emergence herbicidal activity, ECHCG (damage score 0-5) ([7]; rate 1000 g/ha): 5
- Pre-emergence herbicidal activity, TRAZW (damage score 0-5) ([8]; rate 1000 g/ha): 0
- Pre-emergence herbicidal activity, ALOMY (damage score 0-5) ([9]; rate 1000 g/ha): 0
- Pre-emergence herbicidal activity, AVEFA (damage score 0-5) (Avena fatua (AVEFA) [10]; rate 1000 g/ha): 0

Compound: O=C(Nc1ccc(-c2cncc(F)c2)nc1C(F)(F)F)c1nccs1 [Compound C117]
- Post-emergence herbicidal activity, TRAZW (damage score 0-5) ([1]; rate 250 g/ha): 0
- Post-emergence herbicidal activity, ALOMY (damage score 0-5) ([2]; rate 250 g/ha): 1
- Post-emergence herbicidal activity, SETFA (damage score 0-5) (Setaria fabenri (SETFA); rate 250 g/ha): 4
- Post-emergence herbicidal activity, AVEFA (damage score 0-5) (Avena fatua (AVEFA) [3]; rate 250 g/ha): 3
- Pre-emergence herbicidal activity, LOLPE (damage score 0-5) (Lolium perenne (LOLPE) [4]; rate 250 g/ha): 0
- Pre-emergence herbicidal activity, SETFA (damage score 0-5) (Setaria fabenr (SETFA); rate 250 g/ha): 2
- Post-emergence herbicidal activity, LOLPE (damage score 0-5) (Lolium perenne (LOLPE) [5]; rate 250 g/ha): 1
- Post-emergence herbicidal activity, ECHCG (damage score 0-5) ([6]; rate 250 g/ha): 1
- Pre-emergence herbicidal activity, ECHCG (damage score 0-5) ([7]; rate 250 g/ha): 1
- Pre-emergence herbicidal activity, TRAZW (damage score 0-5) ([8]; rate 250 g/ha): 0
- Pre-emergence herbicidal activity, ALOMY (damage score 0-5) ([9]; rate 250 g/ha): 0
- Pre-emergence herbicidal activity, AVEFA (damage score 0-5) (Avena fatua (AVEFA) [10]; rate 250 g/ha): 0

Reference: US11230538B2, “Herbicides” (SYNGENTA PARTICIPATIONS AG, priority 2016, dated 2022)
